The test system of one test is Jurkat cells. Put plainly: IL-2 secretion assay in CD3/CD28-activated Jurkat cells (AlphaLISA). It counts as cell-based, human. The note with it: Homo sapiens, CD3/CD28 T Cell Activator, 24 h, IL-2 AlphaLISA. The essentials:
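Jurkat cells (50,000/well) preincubated 1 h at 37° C with compound (16-point 1:2 series, final 10 μM to 300 pM) in Opti-MEM, then stimulated with CD3/CD28 activator for 24 h. Supernatant IL-2 read by AlphaLISA; EC50 from 4-parameter logistic fit.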

In the next test the target is T1, Cbl-b (Homo sapiens, UniProt Q13191).
T1 construct: biotin (biotinylated)
T1 sequence (Q13191 whole entry, species assumed): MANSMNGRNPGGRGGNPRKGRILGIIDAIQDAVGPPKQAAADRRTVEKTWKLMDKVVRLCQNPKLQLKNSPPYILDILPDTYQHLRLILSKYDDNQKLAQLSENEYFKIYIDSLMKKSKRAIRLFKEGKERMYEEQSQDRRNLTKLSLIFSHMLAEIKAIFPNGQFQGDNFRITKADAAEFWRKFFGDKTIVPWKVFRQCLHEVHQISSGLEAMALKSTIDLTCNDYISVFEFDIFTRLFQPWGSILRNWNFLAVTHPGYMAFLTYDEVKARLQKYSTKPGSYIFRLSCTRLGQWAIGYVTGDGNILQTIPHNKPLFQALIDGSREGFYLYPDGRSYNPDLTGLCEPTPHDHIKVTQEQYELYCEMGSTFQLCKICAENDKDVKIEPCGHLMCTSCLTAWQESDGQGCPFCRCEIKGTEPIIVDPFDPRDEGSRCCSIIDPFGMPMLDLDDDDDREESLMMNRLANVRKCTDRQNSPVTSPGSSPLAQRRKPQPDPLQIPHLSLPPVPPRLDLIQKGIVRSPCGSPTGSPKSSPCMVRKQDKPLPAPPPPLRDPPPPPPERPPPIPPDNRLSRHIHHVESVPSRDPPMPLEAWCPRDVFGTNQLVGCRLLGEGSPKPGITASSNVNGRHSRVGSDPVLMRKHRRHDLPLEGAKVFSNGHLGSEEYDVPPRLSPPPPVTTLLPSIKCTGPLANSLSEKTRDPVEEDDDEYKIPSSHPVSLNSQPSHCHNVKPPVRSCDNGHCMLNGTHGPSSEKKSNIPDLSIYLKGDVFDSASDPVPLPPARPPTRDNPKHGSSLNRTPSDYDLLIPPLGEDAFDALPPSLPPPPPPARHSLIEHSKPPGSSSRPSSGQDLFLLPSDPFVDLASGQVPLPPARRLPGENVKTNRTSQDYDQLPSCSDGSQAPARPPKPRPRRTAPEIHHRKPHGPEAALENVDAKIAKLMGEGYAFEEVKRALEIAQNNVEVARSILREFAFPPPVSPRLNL
Put plainly: Cbl-b probe displacement HTRF binding assay. The note with it: 0.4 nM biotinylated Cbl-b, 150 nM BODIPY probe. The method, boiled down: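 Biotinylated Cbl-b (0.4 nM) preincubated 60 min at RT with compound (20-point 1:2 series, 10 μM top), then 150 nM BODIPY probe for 15 min, then streptavidin-terbium detection. Buffer: 20 mM Hepes, 150 mM NaCl, 0.01% Triton X-100, 0.5 mM TCEP, 0.01% BSA. Loss of HTRF signal gave IC50 via four-parameter fit.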

Some results are limits rather than exact numbers.

Compound `C[C@@H]1CN(Cc2cc3c(C4CC4)cn(-c4cc(-c5cc(F)c(F)cc5-c5nccn5C)cc(C5CC5)n4)c(=O)c3[nH]2)CCO1` [Example 66, 2-{[(R)-2-methyl-4-morpholinyl]methyl}-4-cyclopropyl-6-{6-cyclopropyl-4-[4,5-difluoro-2-(1-methyl-2-imidazolyl)phenyl]-2-pyridyl}-1,6-dihydro-1,6-diaza-7-indenone] showed an EC50 in the test on Jurkat cells of 100 to 1000 nM. Further, on Cbl-b, the IC50 was below 100 nM.
Regarding `Cn1cc(C(F)(F)F)nc1-c1cc(C#N)ccc1-c1cc(C2CC2)nc(-n2cc(C3CC3)c3cc(CNC4(C)CCC4)[nH]c3c2=O)c1` [Example 67, 4-(6-cyclopropyl-2-{4-cyclopropyl-2-[(1-methylcyclobutylamino)methyl]-7-oxo-1,6-dihydro-1,6-diaza-6-indenyl}-4-pyridyl)-3-[1-methyl-4-(trifluoromethyl)-2-imidazolyl]benzonitrile], the EC50 with Jurkat cells fell in the range of 100 to 1000 nM. Moreover, the IC50 at Cbl-b is below 100 nM.
In the test with Jurkat cells, `CC1(NCc2cc3c(C4CC4)cn(-c4cc(-c5ccc(C#N)cc5-c5nncn5C(F)F)cc(C5CC5)n4)c(=O)c3[nH]2)CCC1` [Example 68, 4-(6-cyclopropyl-2-{4-cyclopropyl-2-[(1-methylcyclobutylamino)methyl]-7-oxo-1,6-dihydro-1,6-diaza-6-indenyl}-4-pyridyl)-3-[4-(difluoromethyl)-4H-1,2,4-triazol-3-yl]benzonitrile] had an EC50 below 100 nM. The same compound had an IC50 at Cbl-b below 100 nM.
With `C[C@H]1CCCN(Cc2cc3c(C4CC4)cn(-c4cc(-c5ccc(C#N)cc5-c5nncn5C(F)F)cc(C5CC5)n4)c(=O)c3[nH]2)C1` [Example 69, 4-[2-(2-{[(S)-3-methyl-1-piperidyl]methyl}-4-cyclopropyl-7-oxo-1,6-dihydro-1,6-diaza-6-indenyl)-6-cyclopropyl-4-pyridyl]-3-[4-(difluoromethyl)-4H-1,2,4-triazol-3-yl]benzonitrile], in the test on Jurkat cells, the EC50 was below 100 nM. Further, on Cbl-b, the IC50 is below 100 nM.
With `O=c1c2[nH]c(CN[C@H]3CCC[C@H]3O)cc2c(C2CC2)cn1-c1cc(F)cc(-c2ccc(F)cc2-c2nncn2C(F)F)c1` [Example 70, 2-{[(1S,2R)-2-hydroxycyclopentylamino]methyl}-4-cyclopropyl-6-{2′-[4-(difluoromethyl)-4H-1,2,4-triazol-3-yl]-4′,5-difluoro-3-biphenylyl}-1,6-dihydro-1,6-diaza-7-indenone], in the test with Jurkat cells, the EC50 is below 100 nM. Further, on Cbl-b, the half-inhibitory concentration (IC50) is below 100 nM.
`Cc1ocnc1-c1cc(C#N)ccc1-c1cc(C2CC2)nc(-n2cc(C3CC3)c3cc(CNC4(C)CCC4)[nH]c3c2=O)c1` [Example 71, 4-(6-cyclopropyl-2-{4-cyclopropyl-2-[(1-methylcyclobutylamino)methyl]-7-oxo-1,6-dihydro-1,6-diaza-6-indenyl}-4-pyridyl)-3-(5-methyl-1,3-oxazol-4-yl)benzonitrile] had an EC50 in the test on Jurkat cells below 100 nM. For the same compound, the IC50 on Cbl-b was below 100 nM.
`CC1(NCc2cc3c(C4CC4)cn(-c4cc(-c5ccc(C#N)cc5-c5ncccc5C(F)(F)F)cc(C5CC5)n4)c(=O)c3[nH]2)CCC1` [Example 73, 4-(6-cyclopropyl-2-{4-cyclopropyl-2-[(1-methylcyclobutylamino)methyl]-7-oxo-1,6-dihydro-1,6-diaza-6-indenyl}-4-pyridyl)-3-[3-(trifluoromethyl)-2-pyridyl]benzonitrile]: the EC50 with Jurkat cells lay within 100 to 1000 nM. This compound yielded an IC50 at Cbl-b below 100 nM.
For `Cc1cccnc1-c1cc(C#N)ccc1-c1cc(C2CC2)nc(-n2cc(C3CC3)c3cc(CN4CCC[C@H](C)C4)[nH]c3c2=O)c1` [Example 74, 4-[2-cyclopropyl-6-[4-cyclopropyl-2-[[(3S)-3-methylpiperidin-1-yl]methyl]-7-oxo-1H-pyrrolo[2,3-c]pyridin-6-yl]pyridin-4-yl]-3-(3-methylpyridin-2-yl)benzonitrile] the same measures were 100 to 1000 nM and below 100 nM.
For `Cc1ccnnc1-c1cc(C#N)ccc1-c1cc(C2CC2)nc(-n2cc(C3CC3)c3cc(CNC4(C)CCC4)[nH]c3c2=O)c1` [Example 75, 4-[2-Cyclopropyl-6-[4-cyclopropyl-2-[[(1-methylcyclobutyl)amino]methyl]-7-oxo-1H-pyrrolo[2,3-c]pyridin-6-yl]pyridin-4-yl]-3-(4-methylpyridazin-3-yl)benzonitrile] the same measures were below 100 nM and below 100 nM.
As for `Cc1ccnnc1-c1cc(C#N)ccc1-c1cc(C2CC2)nc(-n2cc(C3CC3)c3cc(CNC4(CO)CCC4)[nH]c3c2=O)c1` [Example 76, 4-[2-Cyclopropyl-6-[4-cyclopropyl-2-[[[1-(hydroxymethyl)cyclobutyl]-amino]methyl]-7-oxo-1H-pyrrolo[2,3-c]pyridin-6-yl]pyridin-4-yl]-3-(4-methylpyridazin-3-yl)benzonitrile], the EC50 with Jurkat cells is below 100 nM. Besides, at Cbl-b, the IC50 is below 100 nM.
In the test on Jurkat cells, `Cc1ccnnc1-c1cc(C#N)ccc1-c1cc(C2CC2)nc(-n2cc(C3CC3)c3cc(CN4CCC[C@H](C)C4)[nH]c3c2=O)c1` [Example 77] returned an EC50 below 100 nM. The same compound had an IC50 at Cbl-b below 100 nM.
Compound `Cc1cc(-c2ccc(C#N)cc2-c2nccn2C)cc(-n2cc(C3CC3)c3cc(CN4CCC[C@H](C)C4)[nH]c3c2=O)n1` [Example 81, 4-[2-(2-{[(S)-3-methyl-1-piperidyl]methyl}-4-cyclopropyl-7-oxo-1,6-dihydro-1,6-diaza-6-indenyl)-6-methyl-4-pyridyl]-3-(1-methyl-2-imidazolyl)benzonitrile] gave an EC50 with Jurkat cells below 100 nM. The compound further showed an IC50 on Cbl-b below 100 nM.
Compound `COc1cc(-c2ccc(F)cc2-c2nccn2C)cc(-n2cc(C3CC3)c3cc(CN4CCC[C@H](C)C4)[nH]c3c2=O)n1` [Example 82, 4-Cyclopropyl-6-[4-[4-fluoro-2-(1-methylimidazol-2-yl)phenyl]-6-methoxypyridin-2-yl]-2-[[(3S)-3-methylpiperidin-1-yl]methyl]-1H-pyrrolo[2,3-c]pyridin-7-one] came in with an EC50 with Jurkat cells below 100 nM. For the same compound, the 50% inhibitory concentration (IC50) at Cbl-b was below 100 nM.
As for `C[C@H]1CCCN(Cc2cc3c(C4CC4)cn(-c4cc(-c5ccc(C(F)(F)F)cc5-c5nccn5C)cc(C5CC5)n4)c(=O)c3[nH]2)C1` [Example 83, 4-Cyclopropyl-6-[6-cyclopropyl-4-[2-(1-methylimidazol-2-yl)-4-(trifluoromethyl)phenyl]pyridin-2-yl]-2-[[(3S)-3-methylpiperidin-1-yl]methyl]-1H-pyrrolo[2,3-c]pyridin-7-one], the EC50 with Jurkat cells was below 100 nM. The compound also gave an IC50 on Cbl-b below 100 nM.
In the test with Jurkat cells, `C[C@H]1CCCN(Cc2cc3c(C#N)cn(-c4cc(-c5ccc(C#N)cc5-c5nccn5C)cc(C5CC5)n4)c(=O)c3[nH]2)C1` [Example 84, 2-{[(S)-3-methyl-1-piperidyl]methyl}-6-{4-[4-cyano-2-(1-methyl-2-imidazolyl)phenyl]-6-cyclopropyl-2-pyridyl}-7-oxo-1,6-dihydro-1,6-diaza-4-indenecarbonitrile] showed an EC50 below 100 nM. For the same compound, the IC50 on Cbl-b is below 100 nM.
As for `C[C@@H]1CN(Cc2cc3c(C#N)cn(-c4cc(-c5ccc(F)cc5-c5nncn5C)cc(C5CC5)n4)c(=O)c3[nH]2)CCO1` [Example 85, 6-[6-cyclopropyl-4-[4-fluoro-2-(4-methyl-1,2,4-triazol-3-yl)phenyl]pyridin-2-yl]-2-[[(2R)-2-methylmorpholin-4-yl]methyl]-7-oxo-1H-pyrrolo[2,3-c]pyridine-4-carbonitrile], the EC50 in the test with Jurkat cells is below 100 nM. At Cbl-b, the IC50 was below 100 nM.
`Cn1ccnc1-c1cc(F)ccc1-c1cc(C2CC2)nc(-n2cc(C#N)c3cc(CNCCCF)[nH]c3c2=O)c1` [Example 86, 6-{6-cyclopropyl-4-[4-fluoro-2-(1-methyl-2-imidazolyl)phenyl]-2-pyridyl}-2-[(3-fluoropropylamino)methyl]-7-oxo-1,6-dihydro-1,6-diaza-4-indenecarbonitrile] came in with an EC50 in the test on Jurkat cells below 100 nM. The compound further gave an IC50 at Cbl-b below 100 nM.
As for `Cn1ccnc1-c1cc(F)ccc1-c1cc(C2CC2)nc(-n2cc(C#N)c3cc(CN4CC5(C4)CS(=O)(=O)C5)[nH]c3c2=O)c1` [Example 87, 6-{6-cyclopropyl-4-[4-fluoro-2-(1-methyl-2-imidazolyl)phenyl]-2-pyridyl}-2-{(2,2-dioxo-2λ^6-thia-6-aza-6-spiro[3.3]heptyl)methyl}-7-oxo-1,6-dihydro-1,6-diaza-4-indenecarbonitrile], the EC50 in the test with Jurkat cells is below 100 nM. This compound returned an IC50 at Cbl-b below 100 nM.
For `C[C@H]1CN(Cc2cc3c(C#N)cn(-c4cc(-c5c(F)cc(F)cc5-c5nccn5C)cc(C5CC5)n4)c(=O)c3[nH]2)CCCO1` [Example 88, 2-{1[(S)-2-methyl-1,4-oxazepan-4-yl]methyl}-6-{6-cyclopropyl-4-[4,6-difluoro-2-(1-methyl-2-imidazolyl)phenyl]-2-pyridyl}-7-oxo-1,6-dihydro-1,6-diaza-4-indenecarbonitrile], in the test with Jurkat cells, the EC50 was below 100 nM. For the same compound, the IC50 at Cbl-b was below 100 nM.
In turn, `C[C@H]1CCCCN1Cc1cc2c(C#N)cn(-c3cc(-c4c(F)cc(F)cc4-c4nccn4C)cc(C4CC4)n3)c(=O)c2[nH]1` [Example 89, 2-{[(S)-2-methyl-1-piperidyl]methyl}-6-{6-cyclopropyl-4-[4,6-difluoro-2-(1-methyl-2-imidazolyl)phenyl]-2-pyridyl}-7-oxo-1,6-dihydro-1,6-diaza-4-indenecarbonitrile] showed a 50% effective concentration (EC50) in the test with Jurkat cells below 100 nM. The IC50 on Cbl-b was below 100 nM.

These data come from patent US20250011318A1 (ARCUS BIOSCIENCES, INC., priority 2023, published 2025).
